Consider one compound from ChEMBL document CHEMBL2412988, “Synthesis, pH-dependent, and plasma stability of meropenem prodrugs for potential use against drug-resistant tuberculosis” (Bioorg Med Chem, 2013).

This experiment deals with Mycobacterium tuberculosis. As to the kind of experiment: Antimycobacterial activity against extensively drug-resistant Mycobacterium tuberculosis in presence of clavulanate. The experiment is classed as functional.

What is called MIC is the lowest concentration that inhibits growth of the organism. As for `C[C@@H](O)[C@H]1C(=O)N2C(C(=O)O)=C(S[C@@H]3CN[C@H](C(=O)N(C)C)C3)[C@H](C)[C@H]12` [MEROPENEM], the minimum inhibitory concentration (MIC) was found to be 0.03 µg/mL.
